The results in this text go back to patent US10227347B2, “Purinyl-N-hydroxyl pyrimidine formamide derivative, preparation methods and uses thereof” (Guizhou Bailing Group Pharmaceutical CO., LTD., priority 2015, dated 2019).

Like-named read-outs stand apart in the source and are kept apart here.

One assay deals with T1, HDAC1 (Homo sapiens, UniProt Q13547).
T1 construct: purchased BPS Bioscience
Put plainly: In vitro HDAC1 enzymatic activity inhibition (Lys-Ac-AMC substrate). It is filed as biochemical. As for the experimental part: Determining the inhibition capability to HDAC activity through the substrate method of fluorophore 4-amino-7-coumarin coupled Ac-peptide (Lys-Ac-AMC). HDAC1 protein is purchased from BPS Bioscience Company; the reaction buffer system is a modified tris(hydroxymethyl)aminomethane (TRIS) buffer (pH7.0). All small molecule compounds are prepared and dissolved by 100% DMSO (dimethyl sulfoxide). HDAC is prepared into the buffer as per certain concentration to be served as the enzyme solution; trypsin and the fluorophore 4-amino-7-coumarin coupled Ac-peptide substrate are prepared into the buffer as per certain concentration to be served as the substrate solution. Adding the compound into the reaction wells of the 384 well plate at the designed concentration, then adding 15 μL HDAC solution into the reaction wells (adding 15 μL blank buffer into the control well 0) for incubation under ambient temperature for 15 min; then adding 10 μL substrate solution to start reaction; during the reaction, the final concentration of HDAC1 protein is 6 nM, trypsin 0.05 μM and Ac-peptide 8 μM.
(§1) Calculating the value of IC50 as per the formula: Y=background data+(top data−background data)/(1+10^((Log IC50−X)*rate of curve))
Where, Y refers to the inhibition ratio (%) and X refers to the compound concentration. […]
Analyzing the result data with the software GraphPad Prism and calculating the value of IC50 as per the formula: Y=background data+(top data−background data)/(1+10^((Log IC50−X)*rate of curve)). Where, Y refers to the inhibition ratio (%) and X refers to the compound concentration.

In a further assay the target is T2, PI3Kα (Homo sapiens, UniProt P42336).
T2 construct: purchased Invitrogen PV4788
Put plainly: PI3Kα activity inhibition (Kinase-Glo). It is filed as biochemical. The note with it: Table 1, graded; read-out: PI3Kα IC50. As for the experimental part:
Detecting the inhibition capability of the compound to PI3Kα and PI3Kδ activities with Kinase-Glo (purchased from Promege Company; Catalog No.: V3771). […] The reaction system also comprises substrates as PIP2 (4, 5-diphosphoinositide, purchased from Life Technologies Company) and ATP (triphosadenine, purchased from Sigma Company). The reaction buffer system comprises 50 mM HEPES (4-hydroxyethylpiperazine ethane sulfonic acid), 3 mM MgCl2, 1 mM EGTA (ethylene glycol bis(2-amino ethylether)quadrol), 100 mM NaCl, 0.03% CHAPS (3-[3-(cholamidopropyl)dimethylamino]-1-propanesulfonic acid), 2 mM DTT (dithiothreitol). The pH value of the reaction buffer is 7.5. […] Mixing the system evenly for incubation under ambient temperature (for 1 h in PI3Kα test and for 2 h in PI3Kδ test). After incubation, adding 10 μL Kinase-Glo which has been preheated to ambient temperature into each reaction well to terminate the reaction; shaking it in dark place for 15 min after it is mixed evenly, then measuring the fluorescence intensity with a microplate reader and analyzing the result data with the software GraphPad Prism.
as §1
Where, Y refers to the inhibition ratio (%) and X refers to the compound concentration.
Background: Kinase-Glo reads ATP consumption through a luciferase reaction.

[1] abbreviates: Table 1, graded, read-out: HDAC1 IC50.
[2] abbreviates: read-out: inhibition value IC50 to the activity of HDAC1.

T1 sequence (Q13547 whole entry, species assumed): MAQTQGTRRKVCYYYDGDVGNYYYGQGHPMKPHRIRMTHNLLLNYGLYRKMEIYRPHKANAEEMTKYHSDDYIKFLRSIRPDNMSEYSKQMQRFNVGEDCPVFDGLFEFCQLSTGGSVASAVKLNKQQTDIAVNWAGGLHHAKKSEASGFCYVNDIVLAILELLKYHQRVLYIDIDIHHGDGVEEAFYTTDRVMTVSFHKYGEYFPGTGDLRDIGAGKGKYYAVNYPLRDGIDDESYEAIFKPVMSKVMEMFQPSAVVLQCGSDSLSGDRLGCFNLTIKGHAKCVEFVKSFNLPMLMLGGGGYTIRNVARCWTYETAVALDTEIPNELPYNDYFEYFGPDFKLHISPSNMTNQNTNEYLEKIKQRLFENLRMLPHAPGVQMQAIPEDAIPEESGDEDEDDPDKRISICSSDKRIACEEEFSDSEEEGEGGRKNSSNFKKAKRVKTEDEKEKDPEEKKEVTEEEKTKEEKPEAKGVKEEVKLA
T2 sequence (P42336 whole entry, species assumed): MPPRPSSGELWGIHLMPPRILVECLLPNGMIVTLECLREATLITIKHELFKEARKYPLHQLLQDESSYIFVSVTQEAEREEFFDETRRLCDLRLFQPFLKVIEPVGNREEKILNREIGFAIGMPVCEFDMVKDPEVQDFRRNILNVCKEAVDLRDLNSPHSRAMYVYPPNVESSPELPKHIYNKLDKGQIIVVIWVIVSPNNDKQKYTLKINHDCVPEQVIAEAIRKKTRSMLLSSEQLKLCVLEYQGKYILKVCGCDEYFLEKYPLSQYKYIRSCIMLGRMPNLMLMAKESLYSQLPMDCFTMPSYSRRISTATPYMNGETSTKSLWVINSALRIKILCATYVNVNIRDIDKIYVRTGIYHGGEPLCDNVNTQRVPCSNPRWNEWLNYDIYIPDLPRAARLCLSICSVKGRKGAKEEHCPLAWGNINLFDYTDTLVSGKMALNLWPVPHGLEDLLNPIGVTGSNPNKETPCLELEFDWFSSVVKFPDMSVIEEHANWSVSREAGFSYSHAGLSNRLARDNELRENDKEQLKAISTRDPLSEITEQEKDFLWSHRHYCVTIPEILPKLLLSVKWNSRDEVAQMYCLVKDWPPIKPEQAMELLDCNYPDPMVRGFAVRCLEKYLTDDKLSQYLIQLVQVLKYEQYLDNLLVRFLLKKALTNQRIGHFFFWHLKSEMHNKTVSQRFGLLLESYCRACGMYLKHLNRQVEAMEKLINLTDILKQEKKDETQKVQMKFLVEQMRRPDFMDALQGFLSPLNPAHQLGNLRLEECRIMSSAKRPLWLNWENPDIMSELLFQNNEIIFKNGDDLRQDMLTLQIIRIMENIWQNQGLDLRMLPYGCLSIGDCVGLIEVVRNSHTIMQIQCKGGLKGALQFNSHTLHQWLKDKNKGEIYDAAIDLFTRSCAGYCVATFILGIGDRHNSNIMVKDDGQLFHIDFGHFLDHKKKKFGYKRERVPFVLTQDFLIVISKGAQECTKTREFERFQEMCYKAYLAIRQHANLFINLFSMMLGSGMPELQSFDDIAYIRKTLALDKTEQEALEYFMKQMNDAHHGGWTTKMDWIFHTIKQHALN
T2 sequence (P27986 whole entry partner, species assumed): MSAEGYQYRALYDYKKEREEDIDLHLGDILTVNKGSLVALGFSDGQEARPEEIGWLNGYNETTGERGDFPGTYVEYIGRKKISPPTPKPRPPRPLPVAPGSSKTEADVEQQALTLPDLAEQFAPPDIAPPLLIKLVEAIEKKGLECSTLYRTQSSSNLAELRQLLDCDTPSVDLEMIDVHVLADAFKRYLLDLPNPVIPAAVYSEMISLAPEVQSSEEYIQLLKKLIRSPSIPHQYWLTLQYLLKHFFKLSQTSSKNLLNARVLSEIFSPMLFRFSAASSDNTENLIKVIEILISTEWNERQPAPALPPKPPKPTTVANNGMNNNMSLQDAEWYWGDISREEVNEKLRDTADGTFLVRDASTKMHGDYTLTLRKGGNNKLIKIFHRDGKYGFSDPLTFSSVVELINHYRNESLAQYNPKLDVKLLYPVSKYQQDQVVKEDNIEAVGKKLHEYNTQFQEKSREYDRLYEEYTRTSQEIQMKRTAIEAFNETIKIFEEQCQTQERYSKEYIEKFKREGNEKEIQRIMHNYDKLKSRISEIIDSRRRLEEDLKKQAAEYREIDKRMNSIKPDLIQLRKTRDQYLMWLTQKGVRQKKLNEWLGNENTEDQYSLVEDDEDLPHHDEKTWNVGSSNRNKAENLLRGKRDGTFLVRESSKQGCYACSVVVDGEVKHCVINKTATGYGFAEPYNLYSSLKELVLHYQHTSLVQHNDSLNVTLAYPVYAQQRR

Turning to “2-(((2-(2-(3-(1-hydroxyethyl)2-phenyl)-9-methyl-6-morpholine-9H-purine-8-yl))methyl(methyl)amino)-N-hydroxyl pyrimidine-5-formamide [CLJ-39]”, the results for the IC50 at HDAC1 (setting [1]) and on PI3Kα were less than 100 nM and more than 10000 nM, respectively.
For “2-(((2-(4-((2-hydroxycaproyl)sulfydryl)phenyl)-9-methyl-6-morpholine-9H-purine-8-yl))methyl(methyl)amino)-N-hydroxyl pyrimidine-5-formamide [CLJ-42]” the same measures were less than 100 nM and more than 10000 nM.
For `CN(Cc1nc2c(N3CCOCC3)nc(-c3ccco3)nc2n1C)c1ncc(C(=O)NO)cn1` [CLJ-26, 2-(((2-(2-furyl)-9-methyl-6-morpholine-9H-purine-8-yl))methyl(methyl)amino)-N-hydroxyl pyrimidine-5-formamide], the IC50 – broadly, the point on the concentration scale where inhibition reaches its midpoint – on HDAC1 (setting [1]) was less than 1 nM; on HDAC1 (setting [2]), less than 1 nM; on PI3Kα, more than 10000 nM.
Consider `CN(Cc1nc2c(N3CCOCC3)nc(-c3ccc(O)cc3)nc2n1C)c1ncc(C(=O)NO)cn1` [CLJ-28, 2-(((2-(4-hydroxyphenyl)-9-methyl-6-morpholine-9H-purine-8-yl))methyl(methyl)amino)-N-hydroxyl pyrimidine-5-formamide], for which the half-inhibitory concentration (IC50) on HDAC1 (setting [1]) was 100 to 1000 nM; at PI3Kα it was more than 10000 nM.
With `CCCCn1c(CN(C)c2ncc(C(=O)NO)cn2)nc2c(N3CCOCC3)nc(-c3ccc(OC)cc3)nc21` [CLJ-33, N-hydroxy-2-(((2-(4-methoxyphenyl)-6-morpholino-9-butyl-9H-purine-8-yl)methyl)(methyl)amino)pyrimidine-5-formamide], the IC50 at HDAC1 (setting [1]) is 100 to 1000 nM; at PI3Kα, more than 10000 nM.
For the compound `COc1ccc(-c2nc(N3CCOCC3)c3nc(CNc4ncc(C(=O)NO)cn4)n(C)c3n2)cc1` [CLJ-34, N-hydroxy-2-(((2-(4-methoxyphenyl)-9-methyl-6-morpholine-9H-purine-8-yl)methyl)amino)pyrimidine-5-formamide], the IC50 at HDAC1 (setting [1]) is less than 100 nM; at PI3Kα, more than 10000 nM.
On to `CN(Cc1nc2c(N3CCOCC3)nc(-c3ccc4c(c3)OCCO4)nc2n1C)c1ncc(C(=O)NO)cn1` [CLJ-37, 2-(((2-(benzo[d][1.4]dioxyheterocyclic hexylene-6-yl)-9-methyl-6-morpholine-9H-purine-8-yl))methyl(methyl)amino)-N-hydroxyl pyrimidine-5-formamide], for which the IC50 on HDAC1 (setting [1]) is less than 1 nM; on HDAC1 (setting [2]) it was less than 1 nM; on PI3Kα, more than 10000 nM.
`CN(Cc1nc2c(N3CCOCC3)nc(-c3cccc(CO)c3)nc2n1C)c1ncc(C(=O)NO)cn1` [CLJ-40, 2-(((2-(3-(hydroxymethyl)phenyl)-9-methyl-6-morpholine-9H-purine-8-yl))methyl(methyl)amino)-N-hydroxyl pyrimidine-5-formamide]: the values for the IC50 at HDAC1 (setting [1]) and on PI3Kα were less than 100 nM and more than 10000 nM, respectively.
On to `CN(Cc1nc2c(N3CCOCC3)nc(-c3cccc(OCCO)c3)nc2n1C)c1ncc(C(=O)NO)cn1` [CLJ-41, 2-(((2-(3-(2-hydroxylethyoxyl)phenyl)-9-methyl-6-morpholine-9H-purine-8-yl))methyl(methyl)amino)-N-hydroxyl pyrimidine-5-formamide], for which the IC50 at HDAC1 (setting [1]) and at PI3Kα was 100 to 1000 nM each time.
For `CC(C)COc1ccc(-c2nc(N3CCOCC3)c3nc(CN(C)c4ncc(C(=O)NO)cn4)n(C)c3n2)cc1` [CLJ-43, 2-(((2-(4-isobutoxyphenyl)-9-methyl-6-morpholine-9H-purine-8-yl))methyl(methyl)amino)-N-hydroxyl pyrimidine-5-formamide], the IC50 at HDAC1 (setting [1]) was less than 100 nM; on PI3Kα, more than 10000 nM.
For `CCCn1c(CN(C)c2ncc(C(=O)NO)cn2)nc2c(N3CCOCC3)nc(-c3ccc(N)cc3)nc21` [CLJ-45, N-hydroxy-2-(((2-(4-aminophenyl)-6-morpholino-9-propyl-9H-purine-8-yl)methyl)(methyl)amino)pyrimidine-5-formamide], in that order: 1000 to 10000 nM and more than 10000 nM.
Turning to `CN(C)c1ccc(-c2nc(N3CCOCC3)c3nc(CN(C)c4ncc(C(=O)NO)cn4)n(C)c3n2)cc1` [CLJ-46], the IC50 at HDAC1 (setting [1]) was less than 1 nM; at HDAC1 (setting [2]), less than 1 nM; at PI3Kα it was more than 10000 nM.
Regarding `CCCCN(Cc1nc2c(N3CCOCC3)nc(-c3ccc(NC)cc3)nc2n1C)c1ncc(C(=O)NO)cn1` [CLJ-47, N-hydroxy-2-(((2-(4-methylaminophenyl)-9-methyl-6-morpholine-9H-purine-8-yl)methyl)(butyl)amino)pyrimidine-5-formamide], the figures for the 50% inhibitory concentration (IC50) at HDAC1 (setting [1]) and at PI3Kα were 1000 to 10000 nM and more than 10000 nM, respectively.
On to `CN(Cc1nc2c(N3CCOCC3)nc(-c3cccc(NS(=O)(=O)CCCl)c3)nc2n1C)c1ncc(C(=O)NO)cn1` [CLJ-50, 2-(((2-(3-(2-chloroethylsulfonamide)phenyl)-9-methyl-6-morpholine-9H-purine-8-yl))methyl(methyl)amino)-N-hydroxyl pyrimidine-5-formamide], for which the IC50 was less than 100 nM against HDAC1 and more than 10000 nM on PI3Kα.
Turning to `CN(Cc1nc2c(N3CCOCC3)nc(-c3ccc(NS(=O)(=O)CCCCl)cc3)nc2n1C)c1ncc(C(=O)NO)cn1` [CLJ-51], the results for the IC50 on HDAC1 (setting [1]) and on PI3Kα were less than 100 nM and more than 10000 nM, respectively.
For `CN(Cc1nc2c(N3CCOCC3)nc(-c3ccc(NC(=O)OC(C)(C)C)cc3)nc2n1C)c1ncc(C(=O)NO)cn1` [CLJ-52] the same measures were less than 100 nM and more than 10000 nM.
For `CN(Cc1nc2c(N3CCOCC3)nc(-c3ccccc3NS(C)(=O)=O)nc2n1C)c1ncc(C(=O)NO)cn1` [CLJ-53], in that order: less than 100 nM and more than 10000 nM.
In the case of `CN(Cc1nc2c(N3CCOCC3)nc(-c3ccc(S(=O)(=O)NCCCCl)cc3)nc2n1C)c1ncc(C(=O)NO)cn1` [CLJ-58, 2-(((2-(4-(N-(3-chloropropyl)sulfonamide)phenyl)-9-methyl-6-morpholine-9H-purine-8-yl))methyl(methyl)amino)-N-hydroxyl pyrimidine-5-formamide], the IC50 at HDAC1 (setting [1]) is less than 100 nM; at PI3Kα, more than 10000 nM.
For the compound `CN(Cc1nc2c(N3CCOCC3)nc(-c3cccc(S(=O)(=O)NCO)c3)nc2n1C)c1ncc(C(=O)NO)cn1` [CLJ-59, 2-(((2-(3-(N-(hydroxymethyl)sulfonamide)phenyl)-9-methyl-6-morpholine-9H-purine-8-yl))methyl(methyl)amino)-N-hydroxyl pyrimidine-5-formamide], the IC50 at HDAC1 (setting [1]) is less than 100 nM; on PI3Kα, more than 10000 nM.
For `CCc1ccc(-c2nc(N3CCOCC3)c3nc(CN(C)c4ncc(C(=O)NO)cn4)n(C)c3n2)cc1` [CLJ-61, 2-(((2-(4-ethylphenyl)-9-methyl-6-morpholine-9H-purine-8-yl))methyl(methyl)amino)-N-hydroxyl pyrimidine-5-formamide], in that order: less than 100 nM and more than 10000 nM.
In the case of `CCCc1ccc(-c2nc(N3CCOCC3)c3nc(CN(C)c4ncc(C(=O)NO)cn4)n(C)c3n2)cc1` [CLJ-62, 2-(((2-(4-propylphenyl)-9-methyl-6-morpholine-9H-purine-8-yl))methyl(methyl)amino)-N-hydroxyl pyrimidine-5-formamide], the results for the IC50 on HDAC1 (setting [1]) and at PI3Kα were less than 100 nM and more than 10000 nM, respectively.
For `CN(Cc1nc2c(N3CCOCC3)nc(-c3ccc(C(C)(C)C)cc3)nc2n1C)c1ncc(C(=O)NO)cn1` [CLJ-63], in that order: less than 100 nM and more than 10000 nM.
For `CN(Cc1nc2c(N3CCOCC3)nc(-c3cccc(C(N)=O)c3)nc2n1C)c1ncc(C(=O)NO)cn1` [CLJ-64, 2-(((2-(3-carbamoylphenyl)-9-methyl-6-morpholine-9H-purine-8-yl))methyl(methyl)amino)-N-hydroxyl pyrimidine-5-formamide] the same measures were less than 100 nM and more than 10000 nM.
As for `CN(Cc1nc2c(N3CCOCC3)nc(-c3cccc(C(=O)NCCO)c3)nc2n1C)c1ncc(C(=O)NO)cn1` [CLJ-65, 2-(((2-(3-(N-(hydroxyethyl)acylamino)phenyl)-9-methyl-6-morpholine-9H-purine-8-yl))methyl(methyl)amino)-N-hydroxyl pyrimidine-5-formamide], the IC50 at HDAC1 (setting [1]) was less than 100 nM; at PI3Kα it was more than 10000 nM.
